Results taken from publication PMC10058761, “Heart-Type Fatty Acid Binding Protein Binds Long-Chain Acylcarnitines and Protects against Lipotoxicity” (International Journal of Molecular Sciences, 2023).
Where “and” joins values, the source holds several entries; their conditions need not be identical. Equal entries are not always repeated.

How the values were obtained:
[1] = target: T1, human FABP3 (Homo sapiens, UniProt P05413); experiment: ITC assay of ligand binding to apo-FABP3; conditions: for Kd / ΔG / ΔH / −TΔS / N (stoichiometry) / binding to FABP3 (binding heat effects) by ITC: KPi pH 7.6, 25 °C; for N (stoichiometry): protein assumed 100% active and delipidated
T1 construct: His-tag (N); TEV cleavage site (N); made in house; host or cells: E. coli BL21(DE3)
T1 sequence (P05413 whole entry): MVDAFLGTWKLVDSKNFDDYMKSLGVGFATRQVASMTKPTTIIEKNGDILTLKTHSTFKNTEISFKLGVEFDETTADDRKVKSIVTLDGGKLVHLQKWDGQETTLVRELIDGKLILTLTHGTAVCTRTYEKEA
Protocol: ITC experiments were carried out on the MicroCal™ iTC200 instrument (Malvern Instruments Ltd., Malvern, UK). Experiments were performed in KPi buffer without and with 0.1% (v/v) TX supplement. […] Experiments for the determination of the ΔCp were performed at three different temperatures: 16, 25, and 37 °C. […] Every titration started with a small 0.3 μL injection introduced to compensate for the diffusion effects. One of the following injection profiles was chosen based on the activity of the ligand and binding heat released: 1.2 μL × 32 or 1.5 μL × 26—all with 120 s time spacing between every injection and 600 rpm. Each ligand was titrated at least two times. The reference baseline consisting of small peaks of identical size (titration of the corresponding ligand into the buffer) was subtracted from the data before fitting to correct for the heat of the ligand dilution. The first injection was excluded from each dataset. The final data were fitted to a theoretical titration curve (one set of sites fitting model) using MicroCal Origin 7 SR4 software (OriginLab, Northampton, MA, USA).

[2] = target: T1, human FABP3; experiment: ITC determination of heat capacity change at 16, 25 and 37 °C; assay type: binding; conditions: ΔH at 16, 25, 37 °C, linear regression
From the text: Heat capacity changes, ΔCp, are important indicators of the structural changes during ligand-to-protein binding in various environmental conditions and may reflect changes in the static and dynamic properties of the protein [33, 34]. Moreover, it may represent interactions with extra supplements, such as salts and detergents, and larger processes, such as changes in protein folding, solvent-accessible surface area (SASA), or protonation states within the active site. […] Thermodynamic parameters for the remaining LCFAs were determined in the KPi + TX buffer, while LCACs were tested in the KPi buffer without any additive. Figure 7 represents an example of the overlays of the ITC experiments for C18:1(n-9)c and the corresponding LCAC performed at the following temperatures: 16, 25, and 37 °C.
(§1) ITC experiments were carried out on the MicroCal™ iTC200 instrument (Malvern Instruments Ltd., Malvern, UK). Experiments were performed in KPi buffer without and with 0.1% (v/v) TX supplement. All titrations except for the determination of the heat capacity, ΔCp, were performed at 25 °C using 20–120 μM protein. Experiments for the determination of the ΔCp were performed at three different temperatures: 16, 25, and 37 °C. 280 μL of the protein solution in the sample cell were titrated with the ligand solution diluted to 200–1200 μM depending on the enzyme concentration (to achieve a 1:10 or 1:5 ratio). Every titration started with a small 0.3 μL injection introduced to compensate for the diffusion effects. One of the following injection profiles was chosen based on the activity of the ligand and binding heat released: 1.2 μL × 32 or 1.5 μL × 26—all with 120 s time spacing between every injection and 600 rpm. Each ligand was titrated at least two times. The reference baseline consisting of small peaks of identical size (titration of the corresponding ligand into the buffer) was subtracted from the data before fitting to correct for the heat of the ligand dilution. The first injection was excluded from each dataset. The final data were fitted to a theoretical titration curve (one set of sites fitting model) using MicroCal Origin 7 SR4 software (OriginLab, Northampton, MA, USA).

[3] = target: T1, human FABP3; experiment: Ligand binding by NMR (2D 1H-15N HSQC chemical shift perturbations); conditions: KPi buffer pH 7.6
Protocol: NMR spectra were acquired on the 600 MHz Bruker Avance Neo spectrometer (Bruker Biospin GmbH, Rheinstetten, Germany) equipped with a 5-mm quadruple-resonance CryoProbe (QCI) with z-gradients. […] All experiments were performed in KPi buffer without or with TX and with the addition of 7% (v/v) D2O, 0.03% (v/v) NaN3, and 0.01% (v/v) SigmaFAST EDTA-free protease inhibitor cocktail to prevent protein degradation. The amount of organic solvent (ethanol or DMSO-d6) was below 2% (v/v) in each experiment.
3D HNCA, 3D HNCO, 3D HN(CA)CO, and 3D CBCA(CO)NH spectra were acquired for the backbone assignment. 3D [^1H,^1H]-nuclear Overhauser spectroscopy (NOESY)-^15N-heteronuclear single-quantum correlation (HSQC) spectrum was acquired using a mixing time of 100 ms and also used in the backbone assignment. 2D ^1H-^15N HSQC spectra were acquired for evaluation of the CSPs caused by the lipid binding. Chemical shifts were referenced internally to the residual water signal at 4.70 ppm relative to the 4,4-dimethyl-4-silapentane-1-sulfonic acid (DSS). […] Other complexes were analyzed by analogy and with the help of 3D [^1H-^1H]-NOESY-^15N-HSQC. All spectra were processed in TopSpin v. 4.1.1. (Bruker, Billerica, MA, USA) and analyzed in CARA 1.9.1. software. Residue-specific protein backbone amide assignment was performed based on the published chemical shifts. CSPs, Δδ, were calculated using Equation (1) with the scaling factor, α, which was set to 0.1 [67, 68]. (1) Δδ=1/2[δH2+α·δN^2],

[4] = target: T1, human FABP3; experiment: ITC competitive binding experiments (FABP3 pre-saturated with a competing ligand); conditions: FABP3 saturated with C18:1(n-9)t-carnitine, titrated with the FA, 25 °C
Protocol: as §1, with “The final data were fitted to a theoretical titration curve (one set of sites fitting model) using MicroCal Origin 7 SR4 software (OriginLab, Northampton, MA, USA).” left out

[5] = KPi without TX, Competitive Binding model
[6] = KPi without TX, One Set of Sites model
[7] = KPi + 0.10% TX, Competitive Binding model
[8] = KPi + 0.10% TX, One Set of Sites model

Compound	Kd ([1]; with 0.1% TX)	ΔG ([1]; with 0.1% TX)	ΔH ([1]; with 0.1% TX)	−TΔS ([1]; with 0.1% TX)	N (stoichiometry) ([1]; with 0.1% TX)	binding to FABP3 by NMR (CSPs in 2D 1H-15N HSQC) [3]	Kd ([1]; without TX)	ΔG ([1]; without TX)	ΔH ([1]; without TX)	−TΔS ([1]; without TX)	N (stoichiometry) ([1]; without TX)	also measured
CCCCCCCC(=O)O[C@H](CC(=O)O)C[N+](C)(C)C.[Cl-] [C8:0-carnitine]						did not bind						binding to FABP3 (binding heat effects) by ITC ([1]; without TX): no binding
CCCCCCCCCC(=O)O [C10:0, caprate]	560 ± 20 nM	-8.535 ± 0.007 kcal/mol		4.7 ± 0.3 kcal/mol	1.0		252 ± 4 nM	-9.01 ± 0.01 kcal/mol	-11.09 kcal/mol and -11.09 ± 0.08 kcal/mol	2.08 ± 0.08 kcal/mol	1.0	ΔG [4, 5]: -11.8 ± 0.1 kcal/mol; ΔH [4, 5]: -14.1 ± 0.2 kcal/mol; -TΔS [4, 6]: 1.0 ± 0.1 kcal/mol; Kd [4, 6]: 360 ± 70 nM; ΔG [4, 6]: -8.8 ± 0.1 kcal/mol; ΔH [4, 6]: -9.8 ± 0.2 kcal/mol
Triton™ X-100 [TX]						did not interact with the FABP3 core structure						
CCCCCCCCCCCCCC(=O)O [C14:0, myristate]	300 ± 100 nM	-8.9 ± 0.2 kcal/mol	-10.9 ± 0.4 kcal/mol	1.9 ± 0.2 kcal/mol	1.0							
CC/C=C\C/C=C\C/C=C\C/C=C\C/C=C\CCCC(=O)O [C20:5(n-3)c, EPA]	1600 ± 200 nM	-7.90 ± 0.07 kcal/mol	-17.4 ± 0.7 kcal/mol	9.5 ± 0.8 kcal/mol	1.0							ΔCp ([2]; KPi with 0.1% TX): −0.37 ± 0.03 kcal∙mol^−1∙K^−1
CCCCCCCCCCCCCCCC(=O)SCCNC(=O)CCNC(=O)[C@H](O)C(C)(C)COP(=O)(O)OP(=O)(O)OC[C@H]1O[C@@H](n2cnc3c(N)ncnc32)[C@H](O)[C@@H]1OP(=O)(O)O [C16:0-CoA, palmitoyl-CoA]						strong CSPs indicative of binding	8900 ± 1200 nM	-6.90 ± 0.08 kcal/mol	-5.04 ± 0.09 kcal/mol	-1.86 ± 0.01 kcal/mol	1.0	effect of detergent addition on binding to FABP3 (ITC) ([1]; KPi with TX detergent): completely blocked the binding
CCCCCCCC/C=C/CCCCCCCC(=O)O [C18:1(n-9)t, elaidate]	210 ± 20 nM	-9.12 ± 0.06 kcal/mol	-8.0 ± 0.9 kcal/mol	-1.1 ± 0.9 kcal/mol	1.0							ΔCp ([2]; KPi with 0.1% TX): −0.15 ± 0.02 kcal∙mol^−1∙K^−1
C[N+](C)(C)C[C@H](O)CC(=O)[O-] [carnitine, L-carnitine]						neither bind nor interact						
CCCCCCCCCCCC(=O)O[C@H](CC(=O)O)C[N+](C)(C)C [C12:0-carnitine]						did not bind						binding to FABP3 (binding heat effects) by ITC ([1]; without TX): no binding

Further lines, with some results ahead:

Kd ([1]; with 0.1% TX)	ΔG ([1]; with 0.1% TX)	ΔH ([1]; with 0.1% TX)	−TΔS ([1]; with 0.1% TX)	N (stoichiometry) ([1]; with 0.1% TX)	binding to FABP3 by NMR (CSPs in 2D 1H-15N HSQC) [3]	Kd ([1]; without TX)	ΔG ([1]; without TX)	ΔH ([1]; without TX)	−TΔS ([1]; without TX)	N (stoichiometry) ([1]; without TX)	Compound	also measured
290 ± 30 nM	-8.93 ± 0.06 kcal/mol	-10.0 ± 0.4 kcal/mol	1.1 ± 0.5 kcal/mol	1.0							CCCCCCCC/C=C\CCCCCCCC(=O)O [C18:1(n-9)c, oleate]	ΔCp ([2]; KPi with 0.1% TX): −0.29 ± 0.06 kcal∙mol^−1∙K^−1
700 ± 100 nM	-8.34 ± 0.04 kcal/mol	-6.4 ± 0.4 kcal/mol	-2.0 ± 0.4 kcal/mol	1.0							CCCCCCCCCCCCCCCCCC(=O)O [C18:0, stearate]	
1109 ± 1 nM	-8.13 ± 0.01 kcal/mol	-12.6 ± 0.3 kcal/mol	4.5 ± 0.3 kcal/mol	1.0		1860 ± 50 nM	-7.82 ± 0.02 kcal/mol	-8.01 ± 0.09 kcal/mol	0.19 ± 0.07 kcal/mol	1.0	CCCCCCCC(=O)O [C8:0, caprylate]	
570 ± 60 nM	-8.54 ± 0.06 kcal/mol	-14.5 ± 0.4 kcal/mol	6.0 ± 0.3 kcal/mol	1.0		200 ± 20 nM	-9.12 ± 0.06 kcal/mol	-8.60 ± 0.08 kcal/mol	-0.53 ± 0.02 kcal/mol	1.0	CCCCCCCCCCCC(=O)O [C12:0, laurate]	ΔCp ([2]; KPi without TX): −0.33 kcal∙mol^−1∙K^−1 and −0.33 ± 0.01 kcal∙mol^−1∙K^−1; -TΔS [4, 5]: -0.4 ± 1.1 kcal/mol; ΔG [4, 5]: -12.5 ± 0.9 kcal/mol; ΔH [4, 5]: -12.1 ± 0.2 kcal/mol; -TΔS [4, 6]: -1.0 ± 0.1 kcal/mol; Kd [4, 6]: 360 ± 30 nM; ΔG [4, 6]: -8.80 ± 0.04 kcal/mol; ΔH [4, 6]: -7.8 ± 0.2 kcal/mol
					strong CSPs indicative of binding	11300 nM	-6.7 kcal/mol	-1.1 kcal/mol	-5.7 kcal/mol	0.5	CCCCCCCCCCCCCC(=O)O[C@H](CC(=O)O)C[N+](C)(C)C.[Cl-] [C14:0-carnitine, miristoylcarnitine]	
	-9.34 ± 0.07 kcal/mol	-8.7 ± 0.9 kcal/mol	-0.6 ± 0.8 kcal/mol	1.0							CCCCCCCCCCCCCCCC(=O)O [C16:0, palmitate]	-TΔS [4, 7]: 0.2 ± 0.1 kcal/mol; ΔG [4, 7]: -11.62 kcal/mol; ΔH [4, 7]: -11.77 kcal/mol; -TΔS [4, 8]: -1.14 ± 0.05 kcal/mol; ΔG [4, 8]: -8.63 ± 0.01 kcal/mol; ΔH [4, 8]: -7.49 ± 0.05 kcal/mol
